Measured values reported in ChEMBL document CHEMBL1156829 (Proc Natl Acad Sci U S A, 2008).
pEC50: −log10 of the molar value.

Assays:
Plasmodium falciparum [1] = assay: NOVARTIS: Inhibition of Plasmodium falciparum 3D7 (drug-susceptible) proliferation in erythrocyte-based infection assay; assay type: functional, organism-based
Plasmodium falciparum [2] = assay: NOVARTIS: Inhibition of Plasmodium falciparum W2 (drug-resistant) proliferation in erythrocyte-based infection assay; assay type: functional, organism-based; conditions: Plasmodium falciparum, W2; read-out: EC50
[3] = NOVARTIS: Cytotoxicity against human hepatocellular carcinoma cell line (Huh7); assay type: toxicity, cell-based, Huh-7; conditions: Huh7 cells (hepatocellular carcinoma cell line)

Cc1ccc2nc(Cl)c3cc(C(=O)NCCN4CCN(C)CC4)sc3c2c1
pEC50 (Plasmodium falciparum [1]; Plasmodium falciparum, 3D7): 5.11
pEC50 (Plasmodium falciparum [2]): 4.93
CC50 [3]: 85900 nM

COc1ccc(OCC(O)CNC2CCN(CC(O)COc3ccc(Cl)c(Cl)c3)CC2)cc1 (stereo unspecified)
pEC50 (Plasmodium falciparum [1]; Plasmodium falciparum, 3D7): 6.48
pEC50 (Plasmodium falciparum [2]): 6.28
CC50 [3]: 9140 nM

CCOC(=O)C1=C(C)NC2=C(C(=O)CC(c3ccc(OC)c(OC)c3)C2)C1c1ccc(Cl)c(Cl)c1 (stereo unspecified)
pEC50 (Plasmodium falciparum [1]; Plasmodium falciparum, 3D7): 6.64
pEC50 (Plasmodium falciparum [2]): 6.98
CC50 [3]: > 100000 nM

N#Cc1c(N)n(CCc2ccc(Cl)cc2Cl)c2nc3ccccc3nc12
pEC50 (Plasmodium falciparum [1]; Plasmodium falciparum, 3D7): 6.08
pEC50 (Plasmodium falciparum [2]): 6.31
CC50 [3]: 33400 nM

Cc1ccc(Nc2nc(NCc3ccccc3)c3ccccc3n2)cc1
pEC50 (Plasmodium falciparum [1]; Plasmodium falciparum, 3D7): 6.74
pEC50 (Plasmodium falciparum [2]): 6.62
CC50 [3]: 10900 nM

COc1ccccc1NC1=CC(=NS(=O)(=O)c2ccc(F)cc2)c2ccccc2C1=O
pEC50 (Plasmodium falciparum [1]; Plasmodium falciparum, 3D7): 6.43
pEC50 (Plasmodium falciparum [2]): 6.37
CC50 [3]: 20600 nM

CC1CCCN(c2ccc(C(=O)NC3CC3)cc2[N+](=O)[O-])C1 (stereo unspecified)
pEC50 (Plasmodium falciparum [1]; Plasmodium falciparum, 3D7): 6.25
pEC50 (Plasmodium falciparum [2]): 5.84
CC50 [3]: > 100000 nM

O=C1[C@@H]2CCCN2C(=O)C(c2ccc(Oc3ccccc3)cc2)N1CCc1ccccn1 (stereo partly specified)
pEC50 (Plasmodium falciparum [1]; Plasmodium falciparum, 3D7): < 5.90
pEC50 (Plasmodium falciparum [2]): > 7.52
CC50 [3]: > 10000 nM

CCCCOc1ccc(-c2nnc(-c3ccc(C)cc3)n2-c2ccccc2)cc1
pEC50 (Plasmodium falciparum [1]; Plasmodium falciparum, 3D7): < 5.92
pEC50 (Plasmodium falciparum [2]): < 6.11
CC50 [3]: > 10000 nM

COc1ccc(Nc2ncnc3[nH]c(-c4cccc([N+](=O)[O-])c4)cc23)cc1
pEC50 (Plasmodium falciparum [1]; Plasmodium falciparum, 3D7): 5.60
pEC50 (Plasmodium falciparum [2]): 5.60
CC50 [3]: > 100000 nM

Nc1cccc(Oc2ccc3c(c2)C(=O)N(c2cccc(C(=O)O)c2)C3=O)c1
pEC50 (Plasmodium falciparum [1]; Plasmodium falciparum, 3D7): < 5.90
pEC50 (Plasmodium falciparum [2]): < 6.56
CC50 [3]: > 10000 nM

C=CCN1C=CC(=Cc2sc3ccccc3[n+]2C)c2ccccc21
pEC50 (Plasmodium falciparum [1]): 6.36
pEC50 (Plasmodium falciparum [2]): 6.90
CC50 [3]: > 9370 nM

CCOC(=O)CCCCC(=O)c1[nH]c(=O)[nH]c1Cn1ccnc1
pEC50 (Plasmodium falciparum [1]; Plasmodium falciparum, 3D7): 6.82
pEC50 (Plasmodium falciparum [2]): 6.78
CC50 [3]: > 100000 nM

CC(=NNC(=O)/C(=C\c1ccc([N+](=O)[O-])cc1)NC(=O)c1ccccc1)c1ccccn1
pEC50 (Plasmodium falciparum [1]; Plasmodium falciparum, 3D7): 6.46
pEC50 (Plasmodium falciparum [2]): 6.77
CC50 [3]: > 100000 nM

O=C(C=Cc1ccccc1)c1c(-c2ccccc2)c2cc([N+](=O)[O-])ccc2[nH]c1=O
pEC50 (Plasmodium falciparum [1]; Plasmodium falciparum, 3D7): < 5.03
pEC50 (Plasmodium falciparum [2]): < 5.35
CC50 [3]: > 100000 nM

CC(C)C1c2[nH]c3ccccc3c2CCN1C(=O)CCl (stereo unspecified)
pEC50 (Plasmodium falciparum [1]; Plasmodium falciparum, 3D7): 6.30
pEC50 (Plasmodium falciparum [2]): 6.42
CC50 [3]: > 10000 nM

COC(=O)C1=C(C)N(c2ccc(N(C)C)cc2)C(C)=C(C(=O)OC)C1c1ccc(Br)cc1
pEC50 (Plasmodium falciparum [1]; Plasmodium falciparum, 3D7): < 5.90
pEC50 (Plasmodium falciparum [2]): < 5.91
CC50 [3]: > 10000 nM

Cc1ccc(S(=O)(=O)NC(=O)Nc2ccc(N(C)C)cc2)cc1
pEC50 (Plasmodium falciparum [1]; Plasmodium falciparum, 3D7): 6.49
pEC50 (Plasmodium falciparum [2]): 6.33
CC50 [3]: 20400 nM

Cc1cnc(Sc2ccccn2)c([N+](=O)[O-])c1
pEC50 (Plasmodium falciparum [1]; Plasmodium falciparum, 3D7): < 4.90
pEC50 (Plasmodium falciparum [2]): 5.21
CC50 [3]: 72900 nM

COc1ccc(C2CC(=O)C3=C(C2)NC(C)=C(C(=O)OC(C)C)C3c2cccc(Br)c2)cc1OC (stereo unspecified)
pEC50 (Plasmodium falciparum [1]; Plasmodium falciparum, 3D7): 6.63
pEC50 (Plasmodium falciparum [2]): 7.38
CC50 [3]: 14700 nM

CCOc1ccc2nc(Sc3nc(Nc4cccc(C)c4)nc(Nc4cccc(C)c4)n3)sc2c1
pEC50 (Plasmodium falciparum [1]; Plasmodium falciparum, 3D7): 5.24
pEC50 (Plasmodium falciparum [2]): < 4.90
CC50 [3]: > 100000 nM

O=C1[C@H]2Cc3c([nH]c4ccccc34)C(CCc3ccccc3)N2C(=O)CN1CCc1c[nH]c2ccccc12 (stereo partly specified)
pEC50 (Plasmodium falciparum [1]; Plasmodium falciparum, 3D7): 5.87
pEC50 (Plasmodium falciparum [2]): 6.68
CC50 [3]: > 10000 nM

CCCCNC1=CC(=O)C(=O)c2ccccc21
pEC50 (Plasmodium falciparum [1]; Plasmodium falciparum, 3D7): 6.32
pEC50 (Plasmodium falciparum [2]): 6.49
CC50 [3]: > 77800 nM

O=C(Nc1cccc(Oc2ccccc2)c1)NC(CN1CCCC1)c1ccccc1 (stereo unspecified)
pEC50 (Plasmodium falciparum [1]; Plasmodium falciparum, 3D7): 6.15
pEC50 (Plasmodium falciparum [2]): 5.84
CC50 [3]: 11800 nM

Oc1c(CN2CCN(Cc3ccc4cccnc4c3O)CC2)ccc2cccnc12
pEC50 (Plasmodium falciparum [1]; Plasmodium falciparum, 3D7): 6.25
pEC50 (Plasmodium falciparum [2]): 6.50
CC50 [3]: > 89300 nM

Cc1cc2nc(NC(=N)N)nc(C)c2cc1C
pEC50 (Plasmodium falciparum [1]; Plasmodium falciparum, 3D7): 5.57
pEC50 (Plasmodium falciparum [2]): < 5.03
CC50 [3]: > 100000 nM

COc1ccc(NC(=O)N2CCN(C(=O)c3nc(-c4ccccc4)nc(C)c3C(=O)OC(C)C)CC2C)cc1 (stereo unspecified)
pEC50 (Plasmodium falciparum [1]; Plasmodium falciparum, 3D7): 6.20
pEC50 (Plasmodium falciparum [2]): 6.85
CC50 [3]: > 10000 nM
